# Experimental data: article PMC6403309, “Hybrid approach to sieve out natural compounds against dual targets in Alzheimer’s Disease” (Scientific Reports, 2019)
# Read-outs that look alike come from different tables or passages of the source.
# Legend:
# BACE1 = biological target: T1, BACE1 (Homo sapiens, UniProt P56817); assay: BACE1 inhibition assay (FRET activity assay kit); assay type: biochemical; conditions: for inhibition at 1 µM: read-out: Single point inhibition % (SPI1μM)
# T1 construct: purchased Sigma Aldrich
# Aβ25–35 = biological target: T2, Aβ25–35 (Homo sapiens, UniProt P05067); assay: Thioflavin T assay of Aβ25–35 aggregation; assay type: biochemical; conditions: compound 100 µM co-incubated with Aβ25–35 100 µM, 72 hours, 37 °C
# T2 construct: Aβ25–35 was bought from Anaspec in powdered form; purchased Anaspec
# Experimental: The dye Thioflavin T (ThT), is used to quantify amyloid aggregates. On binding to the beta sheets of amyloid aggregates, the rotation of the ThT rings is hampered thus preserving the excited states leading to fluorescence enhancement. The Aβ25–35 sample was prepared by dissolving it in HFIP to remove any preformed aggregates and keeping aliquots at −80 °C. On the day of assay, aliquot of the HFIP dissolved Aβ25–35 (final concentration 100 µM) was lyophilized. Thereafter the lyophilized sample was dissolved in phosphate buffer. A stock solution of the compounds with concentration of 1 mM was prepared in DMSO. The compounds with final concentration of 100 µM were co-incubated with Aβ25–35 for 72 hours at 37 °C. The co-incubated samples were diluted five times. A stock solution of Thioflavin T was prepared in DMSO and final concentration of 15 µM was added. The fluorescence was measured by excitation at 440 nm and emission at 460–550 nm.
# T1 sequence (P56817 46-501): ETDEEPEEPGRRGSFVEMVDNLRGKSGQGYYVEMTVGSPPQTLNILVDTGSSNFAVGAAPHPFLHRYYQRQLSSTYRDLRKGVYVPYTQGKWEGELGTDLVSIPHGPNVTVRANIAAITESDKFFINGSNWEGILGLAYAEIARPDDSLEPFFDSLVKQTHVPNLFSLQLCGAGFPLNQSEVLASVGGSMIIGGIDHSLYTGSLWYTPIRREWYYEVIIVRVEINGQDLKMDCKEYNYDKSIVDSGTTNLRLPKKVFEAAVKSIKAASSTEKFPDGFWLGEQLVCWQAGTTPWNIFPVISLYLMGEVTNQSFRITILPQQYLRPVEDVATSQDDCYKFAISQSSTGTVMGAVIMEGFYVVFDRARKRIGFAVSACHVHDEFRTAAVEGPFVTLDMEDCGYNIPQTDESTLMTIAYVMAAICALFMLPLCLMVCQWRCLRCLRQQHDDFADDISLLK
BACE1 inhibition activity (in words) (BACE1; compound 1 µM),"inhibition at 1 µM (BACE1; compound 1 µM, 37 °C, 2 hours)",reduction in the fibril formation (Aβ25–35),SMILES,inhibition at 1 µM (BACE1)
–,–,–,"O=c1c(O)c(-c2ccc(O)c(O)c2)oc2c(O)c(O)cc(O)c12 [Gossypetin, reference compound]",4.6%
moderate BACE1 inhibition activity,17%,more than 50%,COC(=O)C(Cc1ccccc1)NC(=O)COc1cc(O)c2c(=O)c(-c3ccc4c(c3)OCCO4)coc2c1 (stereo not shown) [ZINC01758814],–
